Where two headings read alike, the source gives them in different places. Bridge positions count the residues as written; N and C are the ends. Peptide text beside a SMILES is read from it.
Experiments:
[1] = ref D. Tran & M.E. Selsted, unpublished data, cited from earlier work
in vitro = conditions: human, EDTA plasma
BALB/c mice = test: Mouse exposure study, repeated subcutaneous injection; format: in vivo
Protocol: Twenty four h after the fourth injection, mice were euthanized with CO2, blood was collected by cardiac puncture, and tissues were harvested and fixed in 10% buffered formalin. Histopathologic examination was performed on sections of heart, lung, liver, spleen, kidney, and injection site skin and subcutaneous tissue. A basic metabolic panel (UC Davis-William R. Pritchard Veterinary Medical Teaching Hospital) was performed on serum samples obtained by cardiac puncture at the time of euthanasia.

E. coli = test: Killing of E. coli during pre-incubation with peptide; format: cell-based, Escherichia coli; conditions: 100 CFU/ml E. coli, 10 µg/ml peptide in RPMI
[2] = test system: SARS-coronavirus (SARS-CoV); conditions: cited from earlier work
[3] = test system: human peripheral blood leukocytes (PBL); test: Cytokine/chemokine release by TLR agonist-stimulated peripheral blood leukocytes (Milliplex); format: cell-based
Protocol: EDTA-anticoagulated blood was obtained from healthy adult volunteers as approved by the Institutional Review Board at USC (protocol # HS-09-00280). Peripheral blood leukocytes (PBL) were harvested from 10–15 ml whole blood after centrifugation at 200× g. Cells were washed twice with 3–5 ml of RPMI, counted with a hemocytometer, and suspended to a cell density of 5×10^5 cells/ml in RPMI +5% human EDTA-plasma. PBLs were stimulated for 4 h with either 0.9 µg/ml ssRNA40, 30 ng/ml S. typhimurium flagellin, 3.3×10^7 CFU/ml heat-killed L. monocytogenes (HKLM), 3 ng/ml E. coli K12 LPS, or 100 CFU/ml of the clinical E. coli isolate. Cytokines/chemokines were quantified using a Milliplex MAP kit on a BioRad Bioplex HTF Luminex reader at the Beckman Center for Immune Monitoring at USC-Norris Cancer Center.

[4] = test system: BALB/c mice challenged with E. coli K12; conditions: 8×10^8 CFU E. coli K12 i.p., single s.c. dose 5 mg/kg at challenge, n = 13
DA rats = test system: DA rats; design: method as in Schaal et. al, manuscript in preparation; conditions: repetitive (8–15 injections) s.c. challenge, after 8 weeks; ref Schaal et. al, manuscript in preparation; cited from earlier work
THP-1 monocytic cells = test: TNF release assay in LPS-stimulated THP-1 monocytes (ELISA); format: cell-based, human; conditions: THP-1 in RPMI +5% human EDTA-plasma, 1 ng/ml K12 LPS, 4 h, N = 2
Protocol: THP-1 monocytic cells (ATCC, Manassas, VA) were grown and maintained in RPMI-1640 medium containing 10% fetal bovine serum and penicillin/streptomycin. Cells were harvested by centrifugation, washed with RPMI-1640 medium and suspended at 5×10^5 cells/ml in fresh medium containing 5% human EDTA plasma.
Peptides (RTDs 1–5, human neutrophil α-defensins) were aliquoted into wells of pyrogen-free 12- or 24-well plates wherein final peptide concentrations were 0–10 µg/ml. Wells were inoculated with 1×10^5 CFU/ml S. aureus or 100 CFU/ml E. coli, or 1–3 ng/ml of E. coli K12 LPS. Samples (5–10 µl) containing peptide or bacteria/LPS were placed on opposite sides of the plate well. Mixing commenced with the addition of 0.5 to 2.0 ml of 1∶10 diluted blood, PBLs (5×10^5/ml), or THP-1 cells (2–5×10^5 cells/ml). Plates were incubated at 37°C in 5% CO2 for 4 h with gentle mixing. […] Incubation mixtures were centrifuged at 200× g for 10 min at 22°C and supernatants were clarified by centrifugation at 23,000× g for 15 min at 4°C. Supernatant TNF was quantified by sandwich ELISA (OptEIA II; BD Biosciences; Hu TNF-α, Invitrogen) per suppliers’ directions, using a SpectraMax Plate Reader.

[5] = human whole blood, data not shown
[6] = test system: leukocytes / target cells; test: Cytotoxicity by trypan blue staining in the in vitro incubations; format: cell-based, human; conditions: TNF release incubations in blood, 4 h
[7] = rat whole blood, data not shown
[8] = test system: human EDTA-anti-coagulated blood diluted 1∶10; test: TNF release assay in stimulated diluted whole blood (ELISA); format: cell-based
host cells = conditions: cited from earlier work
Text: The only detected tissue effect as ...

[9] = mouse whole blood, data not shown
[10] = test system: BALB/c mice with CLP polymicrobial sepsis; test: Cecal-ligation/puncture (CLP) induced sepsis; format: in vivo, mouse
Protocol: Polymicrobial peritonitis was induced in 6–8 week old BALB/c mice by CLP as described, [21]. Briefly, laparotomy was performed on anesthetized animals and the cecum was ligated below the ileocecal valve. Both walls of the cecum were punctured twice with an 18-gauge needle, and the surgical wound closed with 3–0 nylon suture. All animals fully recovered within 60 min. […] Animal health was evaluated daily for 28 days. As above, mice were euthanized when they became moribund.

[11] = LPS neutralization assay (Limulus amoebocyte lysate); format: biochemical, Escherichia coli; conditions: LAL assay, 0–10 µg/ml, N = 4
Protocol: To each sample 25 µl of Limulus amoebocyte lysate (LAL; Lonza) was added and incubated for 10 min at 37°C after which 100 µl of LAL substrate was added and incubated for 6 min at 37°C. Reactions were quenched with 50 µl of 25% HOAc and read spectrophotometrically at 405 nm.

[12] = PBL stimulated 4 h with 0.9 µg/ml ssRNA40 (TLR8 agonist), simultaneous addition of 10 µg/ml peptide

CC[C@H](C)[C@@H]1NC(=O)[C@@H]2CSSC[C@H](NC(=O)[C@H](CCCNC(=N)N)NC(=O)[C@@H]3CSSC[C@H](NC1=O)C(=O)N[C@@H]([C@@H](C)O)C(=O)N[C@@H](CCCNC(=N)N)C(=O)NCC(=O)N[C@@H](Cc1ccccc1)C(=O)N3)C(=O)N[C@@H](CC(C)C)C(=O)N[C@H]1CSSC[C@H](NC(=O)[C@H](C(C)C)NC(=O)CNC(=O)[C@H](CCCNC(=N)N)NC(=O)[C@H](CCCNC(=N)N)NC1=O)C(=O)N[C@@H](CCCNC(=N)N)C(=O)N2 [RTD-1] (cyclo(GFCRCLCRRGVCRCICTR); disulfide 3-16, 5-14, 7-12)
stability to heating ([1]; 100°C, 30 min): completely stable | stability to extended storage at pH 2.0 ([1]; pH 2.0): completely stable | remaining at 72 h, 50 µg/ml (in vitro): 93% | incidence of focal, non-erythematous swelling at injection site (BALB/c mice; 40 mg/kg s.c. daily, at day 4): 2/4 | incidence of focal, non-erythematous swelling at injection site (BALB/c mice; 160 mg/kg s.c. daily, by day 3): 4/4 | histopathology of lungs, kidneys, heart, liver, spleen (BALB/c mice; after 4 day dosing regimen, all peptide levels tested): no abnormalities | serum chemistries (BALB/c mice; daily s.c. injections for 4 days, 2.5–160 mg/kg, basic metabolic panel): indistinguishable from saline-treated controls | acute toxicity (BALB/c mice; daily s.c. injections for 4 days, up to 160 mg/kg (highest dose tested), groups of four): no acute toxicity was observed | lobular panniculitis with fat necrosis at injection site (BALB/c mice; multiple injections of 2.5 or 10 mg/kg): absent | time to killing of E. coli (absence of viable bacteria) (E. coli): ≤ 30 min | virus neutralization in vitro [2]: did not neutralize the virus | effect on induced levels of chemokines CXCL8 (IL-8), CCL2 (MCP-1), CCL3 (MIP-1α), CCL4 (MIP-1β) ([3]; HKLM-stimulated PBL, 10 µg/ml peptide, 4 h): no suppression | suppression of supernatant IL-1β level [3, 12]: 95% | suppression of supernatant IL-8 level [3, 12]: 68% | effect on VEGF-A ([3]; RTD-1 treatment of PBLs): reproducible elevation | effect of peptide alone on cytokine/chemokine release ([3]; unstimulated leukocytes, 10 µg/ml peptide alone, exception VEGF and to a lesser degree CCL2 (MCP-1)): little effect | survival [4]: significantly improved survival | anti-RTD-1 antibody (DA rats): no anti-RTD-1 antibody | hierarchy of anti-TNF potencies (THP-1 monocytic cells): RTD-5>2>1>4>3 | time highly stable in whole blood [5]: at least 24 h | cytotoxicity (trypan blue staining of leukocytes) [6]: no cytotoxicity was detected | time highly stable in whole blood [7]: at least 24 h | blockade of TNF release ([8]; E. coli pre-treated with 10 µg/ml peptide for 0–120 min before addition of blood, 4 h, all time-points): complete blockade | hierarchy of anti-TNF potencies ([8]; E. coli-stimulated blood, 4 h, N = 2): RTD-5>2>1>4>3 | effect of peptide alone on TNF release ([8]; blood incubated 4 h with peptide alone, no stimulus): no effect | toxicity to host cells in vitro (host cells): non-toxic | time highly stable in whole blood [9]: at least 24 h | long term survival ([10]; single i.v. dose administered 4 h after CLP surgery, 28 days): 10 of 11 | recovery / survival ([10]; single i.v. dose delayed until 24 h post CLP, through end of trial): 4 of 5 | effectiveness in neutralizing E. coli LPS relative to polymyxin B (fold less effective) ([11]; 10 min 37°C): 50–100 fold | neutralization of E. coli LPS [11]: ineffective in neutralizing

— PMC3516535, “Rhesus Macaque Theta Defensins Suppress Inflammatory Cytokines and Enhance Survival in Mouse Models of Bacteremic Sepsis” (PLoS ONE, 2012)
